One may read the pEC50 as −log10 of the EC50, conventionally taken in molar units. A higher pEC50 goes with a small EC50. As a reminder, the EC50 is the concentration that produces a half-maximal response. A lower EC50 goes with higher potency in that assay.

10 molecules from patent US10793568B2, “Hormone receptor modulators for treating metabolic conditions and disorders” (ARDELYX, INC., priority 2016, dated 2020) can be followed below.

The test system of one assay is DSS colitis mice. Put plainly: Restoration of epithelial barrier integrity in DSS colitis. It is filed as in vivo, C57Bl/6 mice. The following applies: 30 mg/kg once daily oral gavage. How it is done: Colonic histopathology was assessed in mice administered dextran sodium sulfate (DSS) to assess the ability of selected example compounds to restore epithelial barrier integrity in a model of colitis presenting with epithelial erosions. Approximately seven-week old, female, C57Bl/6 mice were purchased from Envigo (Livermore, Calif.), were housed 6 per cage and acclimated for at least 2 weeks before study initiation. Animals were fed standard laboratory rodent chow Harlan Teklad Global 2018 (Maddison, Wis.). Mice had ad libitum access to food and water for the duration of the study and were maintained in a temperature and humidity controlled room on a standard light/dark cycle of 6 AM to 6 PM. DSS was prepared at 1.5% (MW 35-50 kDa, Lot # M7191, MP Biomedical) in filtered drinking water and provided to the mice from Day 0 to Day 7 (n=12/group). The DSS water was replaced once during the study on Day 3 or 4 with fresh DSS water. One cohort of mice (n=6) was provided drinking water without DSS and severed as the non-diseased control group. Vehicle (1% methylcellulose in water, 10 mL/kg) or varying doses of test compound were administered once daily by oral gavage beginning on Day −3 through Day 8. FXR agonist compounds of the invention, FXR1 and FXR2, were tested at doses of 0.3 and 1 mg/kg and compared to known FXR agonist obeticholic acid (OCA) administered at 30 mg/kg. Body weight and food and water intake were measured daily from the initiation of DSS administration. Disease activity index (DAI) scoring was performed on Day 9 prior to necropsy. Stool consistency, blood in stool, incidence of rectal prolapse, and body condition was assessed according to the scoring system in Table 25 and summed to a total DAI score:
Following DAI scoring on Day 9 and under isoflurane anesthesia mice were exsanguinated via cardiac puncture and euthanized by thoracotomy, followed by cervical dislocation. The entire colon (from the cecum to the anus) was removed, and the length recorded. The luminal contents were removed by flushing with ice-cold PBS using a blunt needle attached to a syringe and the colon was blotted dry and weighed. For each treatment group, half of the distal colon samples were prepared for cytokine analysis and half were prepared for histological evaluation. For cytokine measurement, the distal ⅓ of the colon was excised and weighed, placed into 5 mL Eppendorf tubes, frozen on dry ice and stored at −80° C., until analysis. Inflammatory cytokines were measured in colon tissue using a V-Plex custom kit (Proinflammatory Panel 1 (mouse), Mesoscale Technology). For histology, the colon was rolled by grasping the distal end and rotating to generate a spiral with a third dimension. The colon was then placed in a tissue cassette, and into a jar of 10/o buffered formalin phosphate at room temperature for at least 24 hours to ensure tissue fixation, at which point the formalin was replaced with 70% ethanol. […] Three levels of the distal colon were assigned a colitis score and the average colitis score for each animal was derived by summing the colitis scores for the three levels of colon evaluated and dividing the sum by three. The average colitis score for each treatment group was derived by summing the colitis scores for all levels of colon evaluated in the group and dividing the sum by the total number of levels of colon evaluated for that group. The presence or absence of mucosal defects (erosions or ulcerations) was also recorded for each level of colon. […]

Assay [1] deals with ligand binding domain of human FXR (Homo sapiens (Human), UniProt Q96RI1). Put plainly: FXR ligand binding assay (LanthaScreen TR-FRET, SRC2-2 peptide recruitment). The following applies: for pEC50: -log EC50, concentration required to produce 50% activation; for Emax: read-out: % Efficacy. (TR-FRET usually uses a lanthanide donor and a delayed reading to cut background.)
For assay [2], the target named is human Farnesoid X receptor ligand-binding domain/Gal4 DNA binding domain chimera (Homo sapiens (Human), UniProt Q96RI1). Put plainly: Cell-based assay of FXR activation (FXR-UAS-bla HEK 293T beta-lactamase reporter). The following applies: cellular FXR beta-lactamase reporter assay; for Emax: HEK-293T, read-out: % Efficacy. In short, it runs like this: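 HEK 293T cells stably expressing a Gal4-fused human FXR LBD and a UAS-driven beta-lactamase reporter were incubated with serially diluted compounds for 16 h at 37 °C in phenol red-free DMEM with 2% charcoal-stripped FBS. CCF4 FRET read-out: excitation 409 nm, emission 447 nm. pEC50 comes from a 3-parameter logistic fit, and efficacy is given as % of GW4064.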
(In general: In a reporter assay the amount or activity of a reporter protein is the signal.)

Setting [3] is: extent of activation relative to GW4064.
Where [4] appears, read: FXR-UAS-bla HEK 293T cells, 16 h, pEC50 = -log EC50.

Each structure is given as a SMILES string.

Sequence of human Farnesoid X receptor ligand-binding domain/Gal4 DNA binding domain chimera (Q96RI1 262-486, change not shown): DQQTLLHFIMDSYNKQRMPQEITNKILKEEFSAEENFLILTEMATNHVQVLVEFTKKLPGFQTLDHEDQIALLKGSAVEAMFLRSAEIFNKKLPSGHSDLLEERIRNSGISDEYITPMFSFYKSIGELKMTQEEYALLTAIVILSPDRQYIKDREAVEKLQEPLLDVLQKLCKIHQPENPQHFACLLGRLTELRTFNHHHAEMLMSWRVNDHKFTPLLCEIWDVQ
Sequence of human Farnesoid X receptor ligand-binding domain/Gal4 DNA binding domain chimera (P04386 1-147 partner): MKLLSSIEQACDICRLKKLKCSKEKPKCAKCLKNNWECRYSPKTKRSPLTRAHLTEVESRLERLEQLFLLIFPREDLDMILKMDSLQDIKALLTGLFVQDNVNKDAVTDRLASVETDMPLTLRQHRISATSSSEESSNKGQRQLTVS
Sequence of ligand binding domain of human FXR (Q96RI1 262-486): as the sequence (Q96RI1 262-486, change not shown) above

In the case of `CC[C@H]1[C@@H](O)[C@@H]2[C@H](CC[C@]3(C)[C@@H]([C@H](C)CCC(=O)O)CC[C@@H]23)[C@@]2(C)CC[C@@H](O)C[C@@H]12` [OCA, obeticholic acid], the DAI score result in the assay with DSS colitis mice (Day 9, vs DSS vehicle) was “did not significantly affect body weight nor DAI score”. Also, in the assay with DSS colitis mice (vs DSS vehicle), the “body weight (DSS-induced reduction)” value is listed as “did not significantly affect body weight”; the “epithelial erosions (mucosal defects) observed histologically” value is “did not reduce the number of epithelial erosions”; the histology colitis score result was “did not significantly affect histology colitis score”; the “inflammatory cytokines IL-6, IL-1β, TNFα, IFNγ and KC/Gro in the colon” value is “only significantly reduced the levels of IL-1β, TNFα and KC/Gro”.
With `O=C(O)c1cc(OCC(F)(F)F)c2nc(N3C[C@@H]4C[C@H]3C[C@H]4OCc3c(-c4c(Cl)cccc4Cl)noc3C3CC3)sc2c1` [Compound I-17, 2-[(1S,4S,5R)-5-{[5-cyclopropyl-3-(2,6-dichlorophenyl)-1,2-oxazol-4-yl]methoxy}-2-azabicyclo[2.2.1]heptan-2-yl]-4-(2,2,2-trifluoroethoxy)-1,3-benzothiazole-6-carboxylic acid], the pEC50 in assay [1] is 8.2. For the same molecule, the Emax in assay [1] (setting [3]) was 162%; in assay [2] (setting [3]), 102%. For the same molecule, the half-maximal effective concentration (EC50) in assay [2] (setting [4]) was 0.1 nM.
On the same counts, the results for `CC(=O)OCCCS(=O)(=O)NC(=O)c1ccc(N2C[C@@H]3C[C@H]2C[C@H]3OCc2c(-c3c(Cl)cccc3Cl)noc2C2CC2)cc1` [Compound I-214, 3-[({4-[(1S,4S,5R)-5-{[5-cyclopropyl-3-(2,6-dichlorophenyl)-1,2-oxazol-4-yl]methoxy}-2-azabicyclo[2.2.1]heptan-2-yl]phenyl}formamido)sulfonyl]propyl Acetate] are 8.6, 138%, 105% and 2.51 nM.
On the same counts, the results for `O=C(O)C1Cc2ccc(N3C(=O)[C@@H]4C[C@H]3C[C@H]4OCc3c(-c4c(Cl)cccc4Cl)noc3C3CC3)cc2C1` (stereo partly drawn) [Compound I-313, 5-[(1S,4R,5R)-5-{[5-cyclopropyl-3-(2,6-dichlorophenyl)-1,2-oxazol-4-yl]methoxy}-3-oxo-2-azabicyclo[2.2.1]heptan-2-yl]-2,3-dihydro-1H-indene-2-carboxylic Acid] are 7, 140%, 112% and 25.1 nM.
Turning to `O=C(O)c1cc([C@@H]2C[C@H]3CC[C@@H](C2)O3)c2nc(N3C[C@@H]4C[C@H]3C[C@H]4OCc3c(-c4c(Cl)cccc4Cl)noc3C3CC3)sc2c1` [Compound I-256, 2-[(1S,4S,5R)-5-{[5-cyclopropyl-3-(2,6-dichlorophenyl)-1,2-oxazol-4-yl]methoxy}-2-azabicyclo[2.2.1]heptan-2-yl]-4-[(1R,3S,5S)-8-oxabicyclo[3.2.1]octan-3-yl]-1,3-benzothiazole-6-carboxylic Acid], the pEC50 amounted to 8.4 in assay [1] and 9.7 in assay [2] (setting [4]). The “% Efficacy” value in assay [1] (setting [3]) came to 157%; in assay [2] (setting [3]), 107%.
Take `O=C(NS(=O)(=O)CCCCCCCCCCN1CCC1)c1ccc(N2C[C@@H]3C[C@H]2C[C@H]3OCc2c(-c3c(Cl)cccc3Cl)noc2C2CC2)c(F)c1` [Compound I-227, N-[10-(azetidin-1-yl)decanesulfonyl]-4-[(1S,4S,5R)-5-{[5-cyclopropyl-3-(2,6-dichlorophenyl)-1,2-oxazol-4-yl]methoxy}-2-azabicyclo[2.2.1]heptan-2-yl]-3-fluorobenzamide]: the pEC50 in assay [1] came out at 8.1. In addition, the Emax in assay [1] (setting [3]) is 163%; in assay [2] (setting [3]), 97%. In assay [2] (setting [4]), this molecule showed an EC50 of 1 nM.
`O=C(O)c1ccc(N2C(=O)[C@@H]3C[C@H]2C[C@@H]3OCc2c(-c3c(Cl)cccc3Cl)noc2C2CC2)cc1` [Compound I-245, 4-[(1S,4R,5S)-5-{[5-cyclopropyl-3-(2,6-dichlorophenyl)-1,2-oxazol-4-yl]methoxy}-3-oxo-2-azabicyclo[2.2.1]heptan-2-yl]benzoic Acid] displayed a pEC50 in assay [1] of more than 5.5. The Emax in assay [2] (setting [3]) amounted to 0%. Moreover, the EC50 in assay [2] (setting [4]) was less than 31.6 nM.
Regarding `O=C(NS(=O)(=O)CC1CCOC1)c1ccc(N2C[C@@H]3C[C@H]2C[C@H]3OCc2c(-c3c(Cl)cccc3Cl)noc2C2CC2)cc1` (stereo partly drawn) [Compound I-186, 4-((1S,4S,5R)-5-((5-cyclopropyl-3-(2,6-dichlorophenyl)isoxazol-4-yl)methoxy)-2-azabicyclo[2.2.1]heptan-2-yl)-N-(((tetrahydrofuran-3-yl)methyl)sulfonyl)benzamide], the pEC50 in assay [1] is 8.9. Further, the Emax in assay [1] (setting [3]) amounted to 134%; in assay [2] (setting [3]), 107%. This molecule showed a 50% effective concentration (EC50) in assay [2] (setting [4]) of 0.158 nM.
In the case of `O=C(O)c1cc(OC(F)(F)F)c2nc(N3C[C@@H]4C[C@H]3C[C@H]4OC(=O)c3c(-c4c(Cl)cccc4Cl)noc3C3CC3)sc2c1` [Compound I-6], the negative logarithm of the EC50 (pEC50) in assay [1] came out at 7.7. For the same molecule, the Emax in assay [1] (setting [3]) was determined as 173%; in assay [2] (setting [3]) it was 112%. For the same molecule, in assay [2] (setting [4]), the 50% effective concentration (EC50) was 3.98 nM.
Regarding `O=C(NS(=O)(=O)C1CC1)c1ccc(N2C[C@@H]3C[C@H]2C[C@H]3OCc2c(-c3c(Cl)cccc3Cl)noc2C2CC2)nc1` [Compound I-205, 6-((1S,4S,5R)-5-((5-cyclopropyl-3-(2,6-dichlorophenyl)isoxazol-4-yl)methoxy)-2-azabicyclo[2.2.1]heptan-2-yl)-N-(cyclopropylsulfonyl)nicotinamide], the negative logarithm of the EC50 (pEC50) in assay [1] is 8.4. The Emax in assay [1] (setting [3]) is 142%; in assay [2] (setting [3]), 104%. Besides, in assay [2] (setting [4]), the half-maximal effective concentration (EC50) is 10 nM.
